Data reported in US20260125374A1, “PI3K-ALPHA INHIBITORS AND METHODS OF MAKING AND USING THE SAME” (Relay Therapeutics, Inc., priority 2021, published 2026).
Entries after “also recorded” stand apart in the source; their conditions may differ.

Experiments:
Assay type in all cases: physicochemical
Bulk stability (1 week) = assay: Bulk stability (1 week); design: key to CL (color): A: No change of color; B: Slight discoloration; C: Medium discoloration; D: Strong discoloration; DC: complete decomposition; details: for CL (color) / Bulk (HPLC) chiral purity / Bulk (HPLC) purity / Bulk (XRPD): Solid state
Description: Bulk stability of I-1 Form A and the 2 salt candidates was investigated at 25° C./92% RH in an open container, at 40° C./75% RH in an open container and at 60° C. in a tight container over 1 week. […] All the 3 salts show no obvious racemization based on chiral purity results.
I-1 Form A and the 2 salts were placed at 25° C./92% RH in an open container, at 40° C./75% RH in an open container and at 60° C. in a closed container for I week. Samples after I week were characterized by XRPD and HPLC and inspected for color change.

Hygroscopicity by DVS = details: for 1st Desorp. (%) / 1st Sorp. (%) / 2nd Desorp. (%) / 2nd Sorp. (%): DVS 25° C.
Description: • Method 1 (for I-1 Form A and I-3 Form A) • Instrument Intrinsic, Advantage or Adventure • Total gas flow 200 sccm • Oven temperature 25° C. • Solvent Water • Method Cycle: 40-0-95-0-40% RH • Stage Step: 10% • Equilibrium: 0.002 dm/dt (%/min) • Minimum dm/dt stability duration: 60 min • Maximum dm/dt stage time: 360 min • Method 2 (for I-4 Form A) • Instrument Intrinsic, Advantage or Adventure • Total gas flow 200 sccm • Oven temperature 25° C. • Solvent Water • Method Cycle: 40-95-0-95-40% RH • Stage Step: 10% • Equilibrium: 0.002 dm/dt (%/min) • Minimum dm/dt stability duration: 60 min • Maximum dm/dt stage time: 360 min
I-1 Form A is hygroscopic. It absorbs about 5.5% water by weight from 40% RH to 95% RH. […] It absorbs about 40% water by weight from 40% RH to 95% RH. Form changed after the DVS test. […] It starts to absorb water when RH>40% and potential hydrate form generates at high humidity based on DVS data. The sorption and desorption are reversible.
Water sorption and desorption behavior of I-1 Form A, I-3 Form A, and I-4 Form A was investigated by DVS at 25° C. with a cycle of 40-0-95-0-40% RH, dm/dt 0.002, min. equilibration time 60 min and max. equilibration time 360 min. XRPD was measured after the DVS test to determine form change.

[1] = Salt screening (XRPD, chiral purity of hits)
Description: Based on the pKa of I-1 free form, 23 counter ions were selected as salt/cocrystal forming agents. Methanol, acetone and isopropyl acetate were used as screening solvents. 1.0 equivalent of selected counter ions/coformers was applied for salt screening. Slurry equilibration, slow evaporation and anti-solvent addition were used as crystallization methods. In total, about 70 screening experiments were conducted.
About 50 mg of I-1 Form A were added to a suitable amount of solvent and 1.0 equivalent of counter ions were added under stirring at 50° C. for 2 hours and then at 25° C. for at least 12 hours. MeOH, acetone and IPAc were used as screening solvents.
Obtained suspensions were taken out and centrifuged. Solids obtained were analyzed by XRPD and salt screening results were summarized in Table 5.1, Table 5.2, and Table 5.3.

[2] = Salt candidates risk matrix (summary)
[3] = 25° C./92% RH, open container, 1 week, listed as I-3 Form A
[4] = 40° C./75% RH, open container, 1 week, listed as I-3 Form A
[5] = 60° C., tight container, 1 week
[6] = 60° C., tight container, 1 week, listed as I-3 Form A
[7] = before storage, listed as I-3 Form A
[8] = crystalline hits of salt screening, listed as I-3 Form A

In the case of `N#Cc1c(-c2cc(NC(=O)c3cc(F)cc(C(F)(F)F)c3)c3c(c2)C(=O)N[C@H]3c2cc(F)ccc2Cl)ccc2ncnn12` [Compound I-3], the “bulk stability (chemical and physical)” value (Bulk stability (1 week); 25° C./92% RH open, 40° C./75% RH open, 60° C. tight container, 1 week, listed as I-3 Form A) is reported as “chemically and physically stable; also recorded: chemically stable and shows no XRPD change; also recorded: good chemical and physical bulk stability”, the Chemical stability (Bulk stability (1 week); [2]) is reported as “Stable” and the Physical stability (Bulk stability (1 week); [2]) is reported as “Stable”. For the same compound, the “CL (color)” value (Bulk stability (1 week); 25° C./92% RH, open container, 1 week) was “A”, the “Bulk (HPLC) chiral purity” value (Bulk stability (1 week); [3]) was 98.3% and the “Bulk (HPLC) purity” value (Bulk stability (1 week); [3]) was 99.4%/. The “Bulk (XRPD)” value (Bulk stability (1 week); [3]) was “No form change*”, the “CL (color)” value (Bulk stability (1 week); 40° C./75% RH, open container, 1 week) was “A” and the “Bulk (HPLC) chiral purity” value (Bulk stability (1 week); [4]) was 98.5%. For the same compound, the “Bulk (HPLC) purity” value (Bulk stability (1 week); [4]) was 99.3%/, the “Bulk (XRPD)” value (Bulk stability (1 week); [4]) was “No form change*” and the “Bulk (XRPD)” value (Bulk stability (1 week); [5]) was “No form change”. For the same compound, the “CL (color)” value (Bulk stability (1 week); [5]) was “A”, the “Bulk (HPLC) chiral purity” value (Bulk stability (1 week); [6]) was 98.3% and the “Bulk (HPLC) purity” value (Bulk stability (1 week); [6]) was 99.5%/. For the same compound, the “Chiral purity (initial)” value (Bulk stability (1 week); [7]) was 98.6%, the “Initial purity by HPLC” value (Bulk stability (1 week); [7]) was 99.5% and the “1st Desorp. (%)” value (Hygroscopicity by DVS; 0% RH, listed as I-3 Form A) was 0.05%. The “1st Sorp. (%)” value (Hygroscopicity by DVS; 0% RH, listed as I-3 Form A) was 0.05%, the “2nd Desorp. (%)” value (Hygroscopicity by DVS; 0% RH, listed as I-3 Form A) was 0.00% and the “2nd Sorp. (%)” value (Hygroscopicity by DVS; 0% RH, listed as I-3 Form A) was 0.00%. The “2nd Desorp. (%)” value (Hygroscopicity by DVS; 10% RH) was 0.11%, the “1st Desorp. (%)” value (Hygroscopicity by DVS; 10% RH, listed as I-3 Form A) was 0.16% and the “1st Sorp. (%)” value (Hygroscopicity by DVS; 10% RH, listed as I-3 Form A) was 0.15%. The “2nd Sorp. (%)” value (Hygroscopicity by DVS; 10% RH, listed as I-3 Form A) was 0.10%, the “1st Desorp. (%)” value (Hygroscopicity by DVS; 20% RH, listed as I-3 Form A) was 0.27% and the “1st Sorp. (%)” value (Hygroscopicity by DVS; 20% RH, listed as I-3 Form A) was 0.26%. The “2nd Desorp. (%)” value (Hygroscopicity by DVS; 20% RH, listed as I-3 Form A) was 0.22%, the “2nd Sorp. (%)” value (Hygroscopicity by DVS; 20% RH, listed as I-3 Form A) was 0.21% and the “1st Desorp. (%)” value (Hygroscopicity by DVS; 30% RH, listed as I-3 Form A) was 0.40%. For the same compound, the “1st Sorp. (%)” value (Hygroscopicity by DVS; 30% RH, listed as I-3 Form A) was 0.38%, the “2nd Desorp. (%)” value (Hygroscopicity by DVS; 30% RH, listed as I-3 Form A) was 0.37% and the “2nd Sorp. (%)” value (Hygroscopicity by DVS; 30% RH, listed as I-3 Form A) was 0.35%. For the same compound, the “1st Desorp. (%)” value (Hygroscopicity by DVS; 40% RH, listed as I-3 Form A) was 0.69%, the “1st Sorp. (%)” value (Hygroscopicity by DVS; 40% RH, listed as I-3 Form A) was 0.67% and the “2nd Desorp. (%)” value (Hygroscopicity by DVS; 40% RH, listed as I-3 Form A) was 2.11%. For the same compound, the “2nd Sorp. (%)” value (Hygroscopicity by DVS; 40% RH, listed as I-3 Form A) was 0.81%, the “1st Sorp. (%)” value (Hygroscopicity by DVS; 50% RH, listed as I-3 Form A) was 2.34% and the “2nd Desorp. (%)” value (Hygroscopicity by DVS; 50% RH, listed as I-3 Form A) was 2.44%. For the same compound, the “1st Sorp. (%)” value (Hygroscopicity by DVS; 60% RH, listed as I-3 Form A) was 2.53%, the “2nd Desorp. (%)” value (Hygroscopicity by DVS; 60% RH, listed as I-3 Form A) was 2.64% and the “1st Sorp. (%)” value (Hygroscopicity by DVS; 70% RH, listed as I-3 Form A) was 2.84%. For the same compound, the “2nd Desorp. (%)” value (Hygroscopicity by DVS; 70% RH, listed as I-3 Form A) was 4.17%, the “1st Sorp. (%)” value (Hygroscopicity by DVS; 80% RH, listed as I-3 Form A) was 4.29% and the “2nd Desorp. (%)” value (Hygroscopicity by DVS; 80% RH, listed as I-3 Form A) was 4.45%. For the same compound, the “1st Sorp. (%)” value (Hygroscopicity by DVS; 90% RH, listed as I-3 Form A) was 4.64%, the “2nd Desorp. (%)” value (Hygroscopicity by DVS; 90% RH, listed as I-3 Form A) was 4.76% and the “1st Sorp. (%)” value (Hygroscopicity by DVS; 95% RH, listed as I-3 Form A) was 5.36%. The “2nd Desorp. (%)” value (Hygroscopicity by DVS; 95% RH, listed as I-3 Form A) was 5.36%, the “form after the DVS test (XRPD)” value (Hygroscopicity by DVS; listed as I-3 Form A) was “still I-3 Form A” and the “Salt screening result (slurry crystallization)” value (“Salt screening result” below) ([1]; 1.0 equiv. p-toluenesulfonic acid, Acetone) was “+ (I-3 Form A) (Salt hits)”. For the same compound, the “Salt screening result” value ([1]; 1.0 equiv. p-toluenesulfonic acid, Isopropyl acetate) was “+ (I-3 Form A) (Salt hits)”, the “Salt screening result” value ([1]; 1.0 equiv. p-toluenesulfonic acid, MeOH) was “+ (I-3 Form A) (Salt hits)” and the “chiral stability in salt screening and scale up solvents” value ([1]; MeOH, acetone and IPAc, acetone) was “good chiral stability”. The “Chiral purity (by HPLC)” value [1, 8] was 99.8%, the “Crystallinity (By XRPD)” value [1, 8] was “High” and the “Chiral purity of salt screening solid” value ([1]; slurry, 1.0 equiv. p-toluenesulfonic acid, Acetone) was “Chiral purity: 99.8%”.
